Data set [1] is described as follows: Particle size of lipid particles (no nucleic acid). The class given is physicochemical. Particulars: lipid particles without nucleic acid; compound/DSPC/cholesterol/DMG-PEG2000 molar ratio 50/10/38.5/1.5; ELS-Z2. The protocol: The compounds described in Examples 1, 9, and 10,1,2-distearoyl-sn-glycero-3-phosphocholine (trade name: COATSOME® MC-8080; NOF corporation), cholesterol (trade name: Cholesterol HP; NIPPON FINE CHEMICAL CO., LTD.), and 1,2-dimyristoyl-rac-glycero-3-(methylpolyoxyethylene 2000) (hereinafter, called DMG-PEG2000) (trade name: SUNBRIGHT® GM-020; NOF corporation) were dissolved in ethanol at a molar ratio of 50/10/38.5/1.5 such that the total lipid concentration became 20 mmol/L, thereby obtaining an oil phase.
A 10 mmol/L acetate buffer having a pH of 4 was used as a water phase and mixed with the oil phase by a micromixer (see JP5288254B) using a syringe pump such that the volume ratio of water phase:oil phase became 6.7:3.3. The mixed solution was diluted 2× with a phosphate buffered saline (PBS), thereby obtaining a dispersion liquid of lipid particles. The dispersion liquid was dialyzed using a dialysis cassette (Slide-A-Lyzer G2, MWCO: 10 kD, Thermo Fisher Scientific) including PBS such that ethanol was removed, thereby obtaining lipid particles containing the compounds described in Examples 1, 9, and 10.
By using the dispersion liquid of lipid particles as it was, the particle size of the lipid particles was measured using a zeta potential/particle size measurement system ELS-Z2 (Otsuka Electronics Co., Ltd.).

A short description of data set [2]: Particle size of nucleic acid lipid particles (Luc2-siRNA). The format is physicochemical. Particulars: compound/DSPC/cholesterol/DMG-PEG2000 50/10/38.5/1.5. A digest of the protocol: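 Lipid particles formed from oil phase (test lipid/DSPC/cholesterol/DMG-PEG2000, 50/10/38.5/1.5 molar, 20 mmol/L total in ethanol) micromixed 1:3 with Luc2-siRNA in pH 4 acetate buffer (19.7 μmol/L); siRNA/lipid 339 mol/mol, PBS-diluted and dialyzed. Size measured on ELS-Z2 dynamic light scattering.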

Data set [3] in a line: Encapsulation rate of siRNA in nucleic acid lipid particles (Luc2-siRNA). The class given is physicochemical. As to conditions: compound/DSPC/cholesterol/DMG-PEG2000 50/10/38.5/1.5. A digest of the protocol: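 Encapsulation rate was calculated as (total − outer-phase siRNA)/total ×100. Total siRNA was quantified spectrophotometrically after lipid-dissolving ethanol precipitation, and unencapsulated siRNA by RiboGreen in TE (ex 485/em 535 nm). The particles were test lipid/DSPC/cholesterol/DMG-PEG2000 at 50/10/38.5/1.5, formed by microfluidic mixing with Luc2-siRNA at pH 4 and dialyzed against PBS.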

Data set [4] relates to DMS273 cells constantly expressing Luc. The data set is described as follows: Target reporter protein (Luc) knockdown in cell, reporter protein assay. The class given is cell-based. Particulars: Homo sapiens, DMS-273; Luc2-siRNA lipid particles using the compound; siRNA 0.1 to 100 nmol/L; concentration at which Luc expression is knocked down to 50%; read-out: IC50. Summed up:
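Nucleic acid lipid particles added at final 0.1 to 100 nmol/L to DMS273 human SCLC cells stably expressing Luc2, 24 hr exposure then 24 hr further culture after medium change. Luc quantified by Steady Glo luminescence after viable cell count; knockdown efficiency calculated and IC50 taken as concentration giving 50% Luc reduction.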

Data set [5] can be described thus: Nucleic acid encapsulation rate of nucleic acid lipid particles (FVII-siRNA). The format is physicochemical. A digest of the protocol:
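Total nucleic acid was measured by adding 30 μL of 3 mol/L sodium acetate and 9 μL of glycogen to 60 μL of FVII-siRNA lipid particles, then precipitating with 1.5 mL ethanol, centrifuging, air-drying, redissolving in water, and reading on a Nanodrop. Outer-phase nucleic acid came from a RiboGreen assay (ex 485 nm, em 535 nm) on samples diluted 10,000× in 1×TE. Encapsulation (%) = (total − outer)/total × 100.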

In data set [6] the test system is Factor VII (FVII) protein. Briefly: Measurement of Factor VII (FVII) protein in mouse plasma after FVII-siRNA lipid particles. The format is in vivo, C57BL6/J mice. As to conditions: 0.1 mg/kg caudal vein, plasma 24 hours after administration, PBS group = 100%. Summed up: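 C57BL6/J mice (n=3) received FVII-siRNA nucleic acid lipid particles at 0.1 mg/kg into the tail vein; controls got PBS. Each value is the percentage of the PBS-group FVII level.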

Data set [7] in a line: Particle size of nucleic acid lipid particles (FVII-siRNA). The format is physicochemical. Summed up:
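Lipid particles formed by micromixing ethanolic ionizable lipid/DSPC/cholesterol/DMG-PEG2000 (50/10/38.5/1.5 mol) with siRNA in pH 4 acetate buffer (3:1 water:oil), diluted with PBS and dialysed against PBS.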

The structures appear in SMILES notation. pIC50: −log10 of the molar value.

A word on the pIC50: it is the negative decadic logarithm of the IC50, by convention in mol/L. For the molecule `CCCCC/C=C\C/C=C\CCCCCCCCN(CCCCCCCC/C=C\C/C=C\CCCCC)C(=O)OCCN(C)CCN(C)C` [Example 1, 2-((2-(dimethylamino)ethyl)(methyl)amino)ethyl di((9Z,12Z)-octadeca-9,12-dien-1-yl)carbamate], the figures for the “Particle size (nm)” value in data set [1] and in data set [2] were 145.9 nm and 66.4 nm, respectively. Also, the “Nucleic acid encapsulation rate” value in data set [3] is on record as 84%. Also, the negative logarithm of the IC50 (pIC50) in data set [4] was 7.89.
In the case of `CCCCC/C=C\C/C=C\CCCCCCCCN(CCCCCCCC/C=C\C/C=C\CCCCC)C(=O)OCCNCCN` [Example 9, 2-((2-aminoethyl)amino)ethyl di((9Z,12Z)-octadeca-9,12-dien-1-yl)carbamate], the “Particle size (nm)” value in data set [1] is 127.5 nm; in data set [2], 79.5 nm. Moreover, in data set [3], the “Nucleic acid encapsulation rate” value came to 92%. In data set [4], the pIC50 was 7.68.
As to `CCCCCCCCCCCCCCCCN(CCCCCCCCCCCCCCCC)C(=O)OCCN(C)CCN(C)C` [Example 10, 2-((2-(Dimethylamino)ethyl)(methyl)amino)ethyl dihexadecylcarbamate], the results for the “Particle size (nm)” value in data set [1] and in data set [2] were 111.2 nm and 159.9 nm, respectively. Moreover, the “Nucleic acid encapsulation rate” value in data set [3] was 80%.
With `CCCCCCCC/C=C\CCCCCCCC(=O)OCCN(CCOC(=O)OC(CCCCCC)CCCC(=O)OCC(CCCC)CCCCCC)CCN(CC)CC` (centres unmarked) [Example 119, 2-Butyloctyl 3-ethyl-12-hexyl-6-(2-(oleoyloxy)ethyl)-10-oxo-9,11-dioxa-3,6-diazahexadecan-16-oate], the “Particle size (nm)” value is listed as 67.8 nm in data set [2] and 66.3 nm in data set [7]. Further, the “Nucleic acid encapsulation rate” value in data set [3] is on record as 89%; in data set [5], 69%. The pIC50 in data set [4] is 7.51. The “Relative amount of FVII protein (%)” value in data set [6] was determined as 5%.
Regarding `CCCCCCCC/C=C\CCCCCCCC(=O)OCCN(CCOC(=O)OC(CCCCCC)CCCC(=O)OCC(CCCCCC)CCCCCCCC)CCN(CC)CC` (centres unmarked) [Example 120, 2-Hexyldecyl 3-ethyl-12-hexyl-6-(2-(oleoyloxy)ethyl)-10-oxo-9,11-dioxa-3,6-diazahexadecan-16-oate], the “Particle size (nm)” value worked out at 66.5 nm in data set [2] and 68.1 nm in data set [7]. The “Nucleic acid encapsulation rate” value in data set [3] amounted to 90%; in data set [5], 66%. For the same molecule, the pIC50 in data set [4] was 7.57. Also, in data set [6], the “Relative amount of FVII protein (%)” value came out at 6%.
`CCCCCCCCCCC(CCCCCCCC)COC(=O)CCCCCCCCC(CCCCCC)OC(=O)OCCN(CCN(CC)CC)C(C)C` (centres unmarked) [Example 121, 2-Octyldodecyl 3-ethyl-12-hexyl-6-isopropyl-10-oxo-9,11-dioxa-3,6-diazahenicosan-21-oate]: the “Particle size (nm)” value stood at 63.2 nm in data set [2] and 65.8 nm in data set [7]. Moreover, the figures for the “Nucleic acid encapsulation rate” value in data set [3] and in data set [5] were 91% and 70%, respectively. Besides, the pIC50 in data set [4] is 7.41. Further, the “Relative amount of FVII protein (%)” value in data set [6] was 10%.
Consider `CCCCCCCOC(=O)CCN(CCOC(=O)OC(CCCCCC)CCCCCCCCC(=O)OCC(CCCC)CCCCCC)CCN(CC)CC` (centres unmarked) [Example 122, 2-Butyloctyl 3-ethyl-6-(3-(heptyloxy)-3-oxopropyl)-12-hexyl-10-oxo-9,11-dioxa-3,6-diazahenicosan-21-oate], for which the “Particle size (nm)” value in data set [2] was 69.5 nm; in data set [7], 80.7 nm. In addition, the “Nucleic acid encapsulation rate” value is recorded as 83% in data set [3] and 84% in data set [5]. Further, the pIC50 in data set [4] was 7.72. In addition, in data set [6], the “Relative amount of FVII protein (%)” value was 3%.
With `CCCCCCCC(=O)OCCN(CCOC(=O)OC(CCCCCC)CCCCCCCCC(=O)OCC(CCCCC)CCCCC)CCN(CC)CC` (centres unmarked) [Example 129, 2-Pentylheptyl 3-ethyl-12-hexyl-6-(2-(octanoyloxy)ethyl)-10-oxo-9,11-dioxa-3,6-diazahenicosan-21-oate], the “Particle size (nm)” value in data set [2] came out at 70.2 nm; in data set [7], 76.4 nm. In addition, the figures for the “Nucleic acid encapsulation rate” value in data set [3] and in data set [5] were 63% and 58%, respectively. The pIC50 in data set [4] is 7.39. In addition, the “Relative amount of FVII protein (%)” value in data set [6] is given as 4%.

The values above are taken from patent US12370143B2, “Compound or salt thereof and lipid particles” (FUJIFILM Corporation, priority 2018, dated 2025).
